Data on 36 compounds can be found in patent US7851474B2, “Dipiperazinyl ketones and related analogues” (Neurogen Corporation, priority 2005, dated 2010).

pKi: −log10 of the molar value. Where two headings read alike, the source gives them in different places.

The target in this experiment is T1, chimeric human H3 receptor (Homo sapiens, UniProt Q9Y5N1, E19D).
T1 construct: made in house; host or cells: Sf9 insect cells (baculovirus infection); P2 membrane preparation
As to the kind of experiment: Chimeric human H3 receptor GTP binding assay (agonist-stimulated GTP-gamma35S binding, Example 7). The class given is biochemical. To be noted: read-out: Ki. The method in brief: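 Sf9 membranes co-expressing the chimeric receptor and heterotrimeric G-protein subunits, 35 μg protein per tube, in pH 7.4 Tris buffer with 10 μM GDP. Test compounds at 10^−10 to 10^−6 M with 1 μM histamine, 60 min at room temperature. Filter-bound GTP-gamma^35S read by scintillation; IC50 from non-linear regression of dose-response curves.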
For orientation: GTPγS is a poorly hydrolysed GTP analogue; its binding reports G protein activation.

Setting [1] is: Table II, assay of Example 7, "*" in Ki.
[2] abbreviates: assay of Example 7, "*" in Ki of Table II.
Setting [3] is: Table II "Ki", symbol "*": Ki in the assay of Example 7.
Setting [4] is: Table II, "*" in Ki, assay of Example 7.
Where [5] appears, read: assay of Example 7, symbol * in column headed Ki of Table II.

T1 sequence (Q9Y5N1 with tags, fused parts or gaps E19D): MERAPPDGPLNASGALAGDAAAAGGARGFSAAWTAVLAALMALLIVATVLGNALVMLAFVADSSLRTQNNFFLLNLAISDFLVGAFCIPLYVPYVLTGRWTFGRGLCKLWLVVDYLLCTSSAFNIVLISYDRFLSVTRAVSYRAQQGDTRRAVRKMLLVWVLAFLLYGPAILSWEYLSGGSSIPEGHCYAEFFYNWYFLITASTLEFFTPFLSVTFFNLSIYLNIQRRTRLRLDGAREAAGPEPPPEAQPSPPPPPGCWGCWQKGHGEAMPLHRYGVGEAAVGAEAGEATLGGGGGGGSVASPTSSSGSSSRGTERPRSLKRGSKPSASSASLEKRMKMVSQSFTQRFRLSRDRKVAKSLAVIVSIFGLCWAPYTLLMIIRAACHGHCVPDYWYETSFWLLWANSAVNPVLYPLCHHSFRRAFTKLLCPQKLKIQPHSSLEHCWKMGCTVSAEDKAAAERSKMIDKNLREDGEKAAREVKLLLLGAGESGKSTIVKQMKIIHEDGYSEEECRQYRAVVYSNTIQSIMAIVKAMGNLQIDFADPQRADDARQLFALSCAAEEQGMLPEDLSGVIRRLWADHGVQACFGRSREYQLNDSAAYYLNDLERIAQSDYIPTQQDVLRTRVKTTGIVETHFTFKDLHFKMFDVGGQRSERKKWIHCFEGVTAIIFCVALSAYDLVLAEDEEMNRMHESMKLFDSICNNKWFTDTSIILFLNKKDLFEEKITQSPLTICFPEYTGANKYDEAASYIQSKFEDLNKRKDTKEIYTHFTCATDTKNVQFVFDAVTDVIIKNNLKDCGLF

For the compound `Cc1ccc(-c2ccc(N3CCN(CC(=O)N4CCN(C5CCC5)CC4)CC3)nn2)cc1F` [Compound 1009, 3-{4-[2-(4-cyclobutylpiperazin-1-yl)-2-oxoethyl]piperazin-1-yl}-6-(3-fluoro-4-methylphenyl)pyridazine], the negative-log Ki (pKi) under setting [1] is greater than 6.00.
Take `CC(C)CCNC(=O)c1cccc(N2CCN(CC(=O)N3CCN(C4CCC4)CC3)CC2)c1` [Compound 1076, 3-{4-[2-(4-cyclobutylpiperazin-1-yl)-2-oxoethyl]piperazin-1-yl}-N-(3-methylbutyl)benzamide]: the pKi under setting [1] was greater than 6.00.
As to `O=C(NC1CCCCC1)c1ccc(N2CCN(CC(=O)N3CCN(C4CCC4)CC3)CC2)nc1` [Compound 1181, 6-{4-[2-(4-cyclobutylpiperazin-1-yl)-2-oxoethyl]piperazin-1-yl}-N-cyclohexylnicotinamide], under setting [2], the pKi was greater than 6.00.
Still for that read-out and setting: for `O=C1CCCc2cc(N3CCN(CC(=O)N4CCN(C5CCC5)CC4)CC3)ccc21` [Compound 1165, 6-{4-[2-(4-cyclobutylpiperazin-1-yl)-2-oxoethyl]piperazin-1-yl}-3,4-dihydronaphthalen-1(2H)-one] the value was greater than 6.00.
As for `Cc1ccc(-c2cnc(N3CCN(CC(=O)N4CCN(C5CCC5)CC4)CC3)cn2)cc1` [Compound 925, 2-{4-[2-(4-cyclobutylpiperazin-1-yl)-2-oxoethyl]piperazin-1-yl}-5-(4-methylphenyl)pyrazine], the pKi under setting [3] was greater than 6.00.
`C=CCNC(=O)c1ccc(N2CCN(CC(=O)N3CCN(C4CCC4)CC3)CC2)nc1` [Compound 1262, N-allyl-6-{4-[2-(4-cyclobutylpiperazin-1-yl)-2-oxoethyl]piperazin-1-yl}nicotinamide]: the pKi under setting [2] is greater than 6.00.
In the case of `CC(C)N1CCN(C(=O)CN2CCN(c3ccc([N+](=O)[O-])cc3)CC2)CC1` [Compound 851, 1-isopropyl-4-{[4-(4-nitrophenyl)piperazin-1-yl]acetyl}piperazine], the pKi under setting [3] was greater than 6.00.
As for `O=C(NC1CCN(CC(=O)N2CCN(C3CCC3)CC2)CC1)C1CCCCC1` [Compound 1227, N-{1-[2-(4-cyclobutylpiperazin-1-yl)-2-oxoethyl]piperidin-4-yl} cyclohexanecarboxamide], the pKi under setting [2] was greater than 6.00.
For `CCC(C)N1CCN(C(=O)CN2CCC(N3CCOCC3)CC2)CC1` (stereo not drawn) [Compound 1116, 4-{1-[2-(4-sec-butylpiperazin-1-yl)-2-oxoethyl]piperidin-4-yl}morpholine], the negative-log Ki (pKi) under setting [1] was greater than 6.00.
In the case of `CCC(C)CNC(=O)c1ccc(N2CCN(CC(=O)N3CCN(C4CCC4)CC3)CC2)nc1` (stereo not drawn) [Compound 1173, 6-{4-[2-(4-cyclobutylpiperazin-1-yl)-2-oxoethyl]piperazin-1-yl}-N-(2-methylbutyl)nicotinamide], the pKi under setting [2] was greater than 6.00.
As to `Cc1ccc(-c2ccc(N3CCN(CC(=O)N4CCN(C5CCC5)CC4)CC3)cc2)cc1F` [Compound 751, 1-cyclobutyl-4-{[4-(3′-fluoro-4′-methylbiphenyl-4-yl)piperazin-1-yl]acetyl}piperazine], under setting [4], the pKi was greater than 6.00.
Consider `CCC(C)CC(=O)NC1CCN(CC(=O)N2CCN(C3CCC3)CC2)C1` (stereo not drawn) [Compound 1251, N-{1-[2-(4-cyclobutylpiperazin-1-yl)-2-oxoethyl]pyrrolidin-3-yl}-3-methylpentanamide], for which the pKi under setting [2] is greater than 6.00.
As for `COc1ccc(-c2ccc(N3CCN(CC(=O)N4CCN(C5CCC5)CC4)CC3)nn2)cc1OC` [Compound 1033, 3-{4-[2-(4-cyclobutylpiperazin-1-yl)-2-oxoethyl]piperazin-1-yl}-6-(3,4-dimethoxyphenyl) pyridazine], the pKi under setting [1] was greater than 6.00.
Same read-out and setting: as for `COc1ccc(-c2ccc(N3CCN(CC(=O)N4CCN(C5CCC5)CC4)CC3)nn2)cc1C` [Compound 1036, 3-{4-[2-(4-cyclobutylpiperazin-1-yl)-2-oxoethyl]piperazin-1-yl}-6-(4-methoxy-3-methylphenyl)pyridazine], the figure is greater than 6.00.
As for `CC(=O)c1ccc(N2CCN(CC(=O)N3CCN(C4CCC4)CC3)CC2)cc1` [Compound 315, 1-(4-{4-[2-(4-cyclobutylpiperazin-1-yl)-2-oxoethyl]piperazin-1-yl}phenyl)ethanone], the pKi under setting [5] was greater than 6.00.
Turning to `O=C1CCc2cc(N3CCN(CC(=O)N4CCN(C5CCC5)CC4)CC3)ccc21` [Compound 1157, 5-{4-[2-(4-cyclobutylpiperazin-1-yl)-2-oxoethyl]piperazin-1-yl}indan-1-one], the pKi under setting [2] is greater than 6.00.
Consider `COCCN(C(=O)c1ccc(N2CCN(CC(=O)N3CCN(C4CCC4)CC3)CC2)nc1)C(C)C` [Compound 1172, 6-{4-[2-(4-cyclobutylpiperazin-1-yl)-2-oxoethyl]piperazin-1-yl}-N-isopropyl-N-(2-methoxyethyl)nicotinamide], for which the negative-log Ki (pKi) under setting [2] was greater than 6.00.
`O=C(Cc1c(Cl)cccc1Cl)N1CCN(CC(=O)N2CCN(C3CCC3)CC2)CC1` [Compound 511, 1-cyclobutyl-4-({4-[(2,6-dichlorophenyl)acetyl]piperazin-1-yl}acetyl)piperazine]: where the note is “"*" in Ki of Table II, assay of Example 7”, the negative-log Ki (pKi) is greater than 6.00.
For `COc1cc(C(C)=O)ccc1N1CCN(CC(=O)N2CCN(C3CCC3)CC2)CC1` [Compound 319, 1-(4-{4-[2-(4-cyclobutylpiperazin-1-yl)-2-oxoethyl]piperazin-1-yl}-3-methoxyphenyl)ethanone], under setting [5], the pKi is greater than 6.00.
Regarding `Cc1ccc(N2CCN(CC(=O)N3CCN(C4CCC4)CC3)CC2C)cc1` (stereo not drawn) [Compound 1105, 4-[2-(4-cyclobutylpiperazin-1-yl)-2-oxoethyl]-2-methyl-1-(4-methylphenyl)piperazine], the pKi under setting [1] is greater than 6.00.
Turning to `CCNC(=O)c1ccc(N2CCN(CC(=O)N3CCN(C4CCC4)CC3)CC2)nc1` [Compound 1174, 6-{4-[2-(4-cyclobutylpiperazin-1-yl)-2-oxoethyl]piperazin-1-yl}-N-ethylnicotinamide], under setting [2], the pKi was greater than 6.00.
Regarding `Cc1ccc(-c2ccc(N3CCN(CC(=O)N4CCN(C5CCC5)CC4)CC3)nn2)c(F)c1` [Compound 1007, 3-{4-[2-(4-cyclobutylpiperazin-1-yl)-2-oxoethyl]piperazin-1-yl}-6-(2-fluoro-4-methylphenyl)pyridazine], the negative-log Ki (pKi) under setting [1] was greater than 6.00.
On the same count and under the same terms, for `O=C(CN1CCN(c2cnc(-c3ccc(Cl)cc3Cl)cn2)CC1)N1CCN(C2CCC2)CC1` [Compound 968, 2-{4-[2-(4-cyclobutylpiperazin-1-yl)-2-oxoethyl]piperazin-1-yl}-5-(2,4-dichlorophenyl)pyrazine] the value was greater than 6.00.
In the case of `CCCc1ccc(C(=O)NC2CCN(CC(=O)N3CCN(C4CCC4)CC3)C2)cc1` (stereo not drawn) [Compound 1234, N-{1-[2-(4-cyclobutylpiperazin-1-yl)-2-oxoethyl]pyrrolidin-3-yl}-4-propylbenzamide], the negative-log Ki (pKi) under setting [2] is greater than 6.00.
With `O=C(CN1CCN(c2ccc(C(=O)N3CCSCC3)cn2)CC1)N1CCN(C2CCC2)CC1` [Compound 1101], the pKi under setting [1] is greater than 6.00.
`O=C(CN1CCN(c2cccc(C(=O)N3CCSCC3)c2)CC1)N1CCN(C2CCC2)CC1` [Compound 1091, 4-(3-{4-[2-(4-cyclobutylpiperazin-1-yl)-2-oxoethyl]piperazin-1-yl}benzoyl) thiomorpholine]: the pKi under setting [1] is greater than 6.00.
As to `O=C(CN1CCN(c2cccc(C(=O)N3CC=CCC3)c2)CC1)N1CCN(C2CCC2)CC1` [Compound 583], under setting [4], the negative logarithm of the Ki (pKi) was greater than 6.00.
For the compound `O=C(c1ccncc1)c1ccc(N2CCN(CC(=O)N3CCN(C4CCC4)CC3)CC2)cc1` [Compound 250, (4-{4-[2-(4-cyclobutylpiperazin-1-yl)-2-oxoethyl]piperazin-1-yl}phenyl)(pyridin-4-yl)methanone], the negative-log Ki (pKi) under setting [5] was greater than 6.00.
Regarding `N#Cc1cnc(N2CCN(CC(=O)N3CCN(C4CCC4)CC3)CC2)cn1` [Compound 1158, 5-{4-[2-(4-cyclobutylpiperazin-1-yl)-2-oxoethyl]piperazin-1-yl}pyrazine-2-carbonitrile], under setting [2], the negative-log Ki (pKi) was greater than 6.00.
`O=C(CN1CCN(c2cccc(C(=O)N3CCCCCC3)c2)CC1)N1CCN(C2CCC2)CC1` [Compound 289, 1-(3-{4-[2-(4-cyclobutylpiperazin-1-yl)-2-oxoethyl]piperazin-1-yl}benzoyl)azepane]: the pKi under setting [5] was greater than 6.00.
The same measure, in the same setting: for `CC(=O)c1ccc(N2CCN(CC(=O)N3CCN(C4CCC4)CC3)CC2)c(F)c1` [Compound 311, 1-(4-{4-[2-(4-cyclobutylpiperazin-1-yl)-2-oxoethyl]piperazin-1-yl}-3-fluorophenyl)ethanone] the value was greater than 6.00.
As to `O=C(CN1CCN(c2ccc(-c3ccccc3C(F)(F)F)cc2)CC1)N1CCN(C2CCC2)CC1` [Compound 580, 1-cyclobutyl-4-({4-[2′-(trifluoromethyl)biphenyl-4-yl]piperazin-1-yl}acetyl)piperazine], the pKi under setting [4] was greater than 6.00.
Consider `O=C(CN1CCN(c2ccc([N+](=O)[O-])cc2)CC1)N1CCN(C2CCCCC2)CC1` [Compound 825, 1-cyclohexyl-4-{[4-(4-nitrophenyl)piperazin-1-yl]acetyl}piperazine], for which, under setting [3], the negative-log Ki (pKi) was greater than 6.00.
The same measure, in the same setting: for `CC(C)c1ccc(-c2cnc(N3CCN(CC(=O)N4CCN(C5CCC5)CC4)CC3)cn2)cc1` [Compound 927, 2-{4-[2-(4-cyclobutylpiperazin-1-yl)-2-oxoethyl]piperazin-1-yl}-5-(4-isopropylphenyl)pyrazine] the value was greater than 6.00.
With `O=C(CN1CCN(c2ccc(-c3ccc(F)c(F)c3)cc2)CC1)N1CCN(C2CCC2)CC1` [Compound 730, 1-cyclobutyl-4-{[4-(3′,4′-difluorobiphenyl-4-yl)piperazin-1-yl]acetyl}piperazine], the pKi under setting [4] is greater than 6.00.
Regarding `Cc1cccc(C(=O)NC2CCN(CC(=O)N3CCN(C4CCC4)CC3)C2)c1` (stereo not drawn) [Compound 1230, N-{1-[2-(4-cyclobutylpiperazin-1-yl)-2-oxoethyl]pyrrolidin-3-yl}-3-methylbenzamide], under setting [2], the pKi was greater than 6.00.

For orientation: pKi means the Ki on a negative log10 scale, so that one unit is a factor of ten.
